This passage reports IC50 results from BindingDB's records for doi:10.1021/jm040129+ (The Johns Hopkins University, 2004).

This test addresses T1, 1,25-dihydroxyvitamin D(3) 24-hydroxylase, mitochondrial (Homo sapiens, UniProt Q07973).
T1 sequence (Q07973 whole entry): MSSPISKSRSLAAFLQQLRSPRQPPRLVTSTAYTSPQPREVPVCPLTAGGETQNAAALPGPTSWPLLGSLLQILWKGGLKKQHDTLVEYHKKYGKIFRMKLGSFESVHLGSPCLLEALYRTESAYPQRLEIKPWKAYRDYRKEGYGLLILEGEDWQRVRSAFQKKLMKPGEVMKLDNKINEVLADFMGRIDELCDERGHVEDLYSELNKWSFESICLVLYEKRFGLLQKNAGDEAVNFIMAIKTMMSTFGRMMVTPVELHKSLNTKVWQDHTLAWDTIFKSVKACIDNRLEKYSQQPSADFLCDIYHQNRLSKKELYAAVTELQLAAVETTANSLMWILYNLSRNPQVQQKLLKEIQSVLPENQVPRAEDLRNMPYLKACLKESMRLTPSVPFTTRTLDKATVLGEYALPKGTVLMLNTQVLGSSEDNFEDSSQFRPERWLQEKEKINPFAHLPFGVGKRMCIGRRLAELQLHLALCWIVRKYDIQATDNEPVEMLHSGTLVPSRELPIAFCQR
Kind of test: Inhibition of human CYP24 hydroxylase expressed in V79 cells.

Structures are written as SMILES.

A word on the IC50: it is the point on the concentration scale where inhibition reaches its midpoint. A low value points to higher potency. `C=C1/C(=C\C=C2/CCC[C@]3(C)[C@@H](C(C)=CC(F)=S(N)(=O)c4ccccc4)CC[C@@H]23)C[C@@H](O)C[C@@H]1O` (stereo partly specified) gave an IC50 greater than 1 µM.
